Measurements: the NIST ThermoML archive (doi:10.1016/j.jct.2014.12.022)

Assay: molar heat capacity at constant pressure; xn = mol fraction of the nth substance listed
Conditions: 100 kPa, Liquid, Small sample (50 mg) DSC

CN1CCCC1=O [N-methylpyrrolidone] + c1ccccc1
molar heat capacity at constant pressure [J/K/mol]
Conditions	293.15 K	298.15 K	303.15 K
x1 = 0.0787	137.73	139.51	140.9
x1 = 0.1156	139.63	141.42	142.83
x1 = 0.168	142.27	144.04	145.46
x1 = 0.1983	143.75	145.51	146.92
x1 = 0.2249	145.03	146.77	148.18
x1 = 0.2634	146.83	148.55	149.94
x1 = 0.3065	148.78	150.46	151.83
x1 = 0.3325	149.91	151.58	152.93
x1 = 0.3617	151.15	152.8	154.13
x1 = 0.4106	153.13	154.74	156.04
x1 = 0.4367	154.13	155.73	157.02
x1 = 0.4635	155.13	156.71	157.98
x1 = 0.5008	156.45	158.01	159.26
x1 = 0.5598	158.37	159.91	161.13
x1 = 0.5952	159.42	160.95	162.15
x1 = 0.6245	160.24	161.75	162.94
x1 = 0.6616	161.18	162.69	163.85
x1 = 0.7099	162.28	163.76	164.9
x1 = 0.7494	163.06	164.51	165.62
x1 = 0.7748	163.51	164.93	166.02
x1 = 0.8011	163.92	165.31	166.38
x1 = 0.8319	164.35	165.68	166.72
x1 = 0.8767	164.84	166.08	167.06
x1 = 0.9152	165.15	166.28	167.2

Cc1cccc(Cl)c1 [3-chlorotoluene] + c1ccccc1
molar heat capacity at constant pressure [J/K/mol]
Conditions	293.15 K	298.15 K	303.15 K
x2 = 0.1056	169.49	170.68	171.79
x2 = 0.1477	167.26	168.43	169.51
x2 = 0.1746	165.85	167.02	168.08
x2 = 0.2065	164.21	165.37	166.4
x2 = 0.2347	162.78	163.93	164.95
x2 = 0.2856	160.26	161.4	162.4
x2 = 0.3148	158.85	160	160.98
x2 = 0.3452	157.42	158.56	159.53
x2 = 0.3899	155.37	156.52	157.48
x2 = 0.4132	154.33	155.48	156.44
x2 = 0.4499	152.73	153.89	154.85
x2 = 0.4967	150.76	151.94	152.9
x2 = 0.5231	149.69	150.88	151.84
x2 = 0.5505	148.6	149.81	150.77
x2 = 0.5836	147.32	148.55	149.52
x2 = 0.6335	145.46	146.73	147.72
x2 = 0.6625	144.42	145.71	146.71
x2 = 0.6988	143.15	144.47	145.5
x2 = 0.7207	142.41	143.74	144.78
x2 = 0.7756	140.58	141.98	143.06
x2 = 0.8045	139.65	141.08	142.18
x2 = 0.8466	138.32	139.8	140.94
x2 = 0.8845	137.14	138.67	139.84
x2 = 0.9197	136.05	137.63	138.84
